Values of other authors in patent publication US20050239875A1, “Derivatives of dihydronepetalactone and method for preparation” (priority 2003, published 2005).

Test system: insect
Settings: disclosed by Hallahan in WO 03/079786

CC1COC(=O)C2C(C)CCC12 (stereo not shown) [DHN, Dihydronepetalactone]
insect repellent performance compared with N,N-diethyl-m-toluamide (DEET): compares favorably
